Legend:
Details in all cases: 50 μl of 1 U/ml enzyme, 10 minutes
PCase (PCase Type I) = assay: Paper disk colour-change test, reactivity against β-lactamases (PCase); type: biochemical, B. cereus; parameters: key: −: negative; +: positive; ++: highly positive
Method: (§1) Each of the test compounds is dissolved in dimethyl sulfoxide. Paper disks with a diameter of 8 mm containing the test compounds in an amount of 5 or 25 μg per disk were prepared and dried in air. Each of these disks was added dropwise with a solution of β-lactamases (50 μl) prepared to a concentration of 1 U/ml with distilled water and allowed for 10 minutes.
(§2) PCase is an enzyme isolated from B. cereus (production of Sigma Chemical Co. :PCase Type I); and CEPase, from E. cloacae (production of Sigma chemical Co. :CEPase Type IV).

CEPase (CEPase Type IV) = biological target: T1, CEPase (CEPase Type IV) (Enterobacter cloacae, UniProt P05364); assay: Paper disk colour-change test, reactivity against β-lactamases (CEPase); type: biochemical, E. cloacae; parameters: key: −: negative; +: positive; ++: highly positive
T1 construct: purchased Sigma chemical Co. CEPase Type IV; host or cells: isolated from E. cloacae
T1 sequence (P05364 21-381): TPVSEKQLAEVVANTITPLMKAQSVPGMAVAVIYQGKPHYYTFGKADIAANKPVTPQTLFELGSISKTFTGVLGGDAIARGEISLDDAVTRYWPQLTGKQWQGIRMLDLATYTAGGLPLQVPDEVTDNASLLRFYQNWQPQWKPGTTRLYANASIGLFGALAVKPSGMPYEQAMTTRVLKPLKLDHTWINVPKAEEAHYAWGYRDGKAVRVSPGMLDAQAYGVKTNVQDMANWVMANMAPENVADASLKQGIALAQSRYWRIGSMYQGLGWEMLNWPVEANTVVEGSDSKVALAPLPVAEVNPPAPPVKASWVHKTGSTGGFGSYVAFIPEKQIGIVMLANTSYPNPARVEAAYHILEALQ
Method: as §1, §2

ESBL = assay: Paper disk colour-change test, reactivity against β-lactamases (ESBL); type: biochemical; parameters: key to Reactivity against β-lactamases: ESBL: −: negative; +: positive; ++: highly positive
Method: as §1

Structure (SMILES)	Reactivity against β-lactamases: PCase (PCase (PCase Type I); content 5 μg/disk)	Reactivity against β-lactamases: CEPase (CEPase (CEPase Type IV); content 5 μg/disk)	Reactivity against β-lactamases: ESBL (ESBL; content 5 μg/disk)	color change (ESBL; content 5 μg/disk)	Reactivity against β-lactamases: PCase (PCase (PCase Type I); content 25 μg/disk)	Reactivity against β-lactamases: CEPase (CEPase (CEPase Type IV); content 25 μg/disk)	Reactivity against β-lactamases: ESBL (ESBL; content 25 μg/disk)	color change (ESBL; content 25 μg/disk)
CC(C)(ON=C(C(=O)NC1C(=O)N2C(C(=O)O)=C(C=Cc3ccc([N+](=O)[O-])cc3[N+](=O)[O-])CS[C@H]12)c1csc(N)n1)C(=O)O (stereo partly shown) [compound 1, 7-[2-(2-aminothiazol-4-yl)-2-(1-carboxy-1-methylethoxyimino)acetamido]-3-(2,4-dinitrostyryl)-3-cephem-4-carboxylic acid]	−	−	++	pale yellow → red				
CC(C)(ON=C(C(=O)NC1C(=O)N2C(C(=O)O)=C(C=Cc3ccc([N+](=O)[O-])cc3)CS[C@H]12)c1csc(N)n1)C(=O)O (stereo partly shown) [compound 2, 7-[2-(2-aminothiazol-4-yl)-2-(1-carboxy-1-methylethoxyimino)acetamido]-3-(4-nitrostyryl)-3-cephem-4-carboxylic acid]	−	−	+	pale yellow → orange				
CC(C)(ON=C(C(=O)NC1C(=O)N2C(C(=O)O)=C(C=Cc3ccc(C#N)cc3)CS[C@H]12)c1csc(N)n1)C(=O)O (stereo partly shown) [compound 3, 7-[2-(2-aminothiazol-4-yl)-2-(1-carboxy-1-methylethoxyimino)acetamido]-3-(4-cyanostyryl)-3-cephem-4-carboxylic acid]					−	−	+	pale yellow → golden
CON=C(C(=O)NC1C(=O)N2C(C(=O)O)=C(C=Cc3ccc([N+](=O)[O-])cc3)CS[C@H]12)c1csc(N)n1 (stereo partly shown) [compound 4, 7-[2-(2-aminothiazol-4-yl)-2-methoxyiminoacetamido]-3-(4-nitrostyryl)-3-cephem-4-carboxylic acid]	−	−	++	pale yellow → orange				
Nc1nc(C(=NOCC(=O)O)C(=O)NC2C(=O)N3C(C(=O)O)=C(C=Cc4ccc([N+](=O)[O-])cc4[N+](=O)[O-])CS[C@H]23)cs1 (stereo partly shown) [compound 5, 7-[2-(2-aminothiazol-4-yl)-2-carboxymethoxyiminoacetamido]-3-(2,4-dinitrostyryl)-3-cephem-4-carboxylic acid]	−	−	++	pale yellow → red				
Nc1nc(C(=NOCC(=O)O)C(=O)NC2C(=O)N3C(C(=O)O)=C(C=Cc4ccc([N+](=O)[O-])cc4)CS[C@H]23)cs1 (stereo partly shown) [compound 6, 7-[2-(2-aminothiazol-4-yl)-2-carboxymethoxyiminoacetamido]-3-(4-nitrostyryl)-3-cephem-4-carboxylic acid]	−	−	++	pale yellow → orange				
O=C(Cc1cccs1)NC1C(=O)N2C(C(=O)O)=C(C=Cc3ccc([N+](=O)[O-])cc3[N+](=O)[O-])CS[C@H]12 (stereo partly shown) [compound A, 3-(2,4-dinitrostyryl)-7-(2-thienylacetamido)-3-cephem-4-carboxylic acid, reference compound]	++	++	++	pale yellow → red				

Source: US6897304B2, “Cephem compounds and ESBL-detecting reagents containing the same” (Zenyaku Kogyo Kabushiki Kaisha, priority 2000, dated 2005)
